Assay [1] addresses T1, Polyunsaturated fatty acid 5-lipoxygenase (Rattus norvegicus) (UniProt P12527).
T1 sequence (whole entry): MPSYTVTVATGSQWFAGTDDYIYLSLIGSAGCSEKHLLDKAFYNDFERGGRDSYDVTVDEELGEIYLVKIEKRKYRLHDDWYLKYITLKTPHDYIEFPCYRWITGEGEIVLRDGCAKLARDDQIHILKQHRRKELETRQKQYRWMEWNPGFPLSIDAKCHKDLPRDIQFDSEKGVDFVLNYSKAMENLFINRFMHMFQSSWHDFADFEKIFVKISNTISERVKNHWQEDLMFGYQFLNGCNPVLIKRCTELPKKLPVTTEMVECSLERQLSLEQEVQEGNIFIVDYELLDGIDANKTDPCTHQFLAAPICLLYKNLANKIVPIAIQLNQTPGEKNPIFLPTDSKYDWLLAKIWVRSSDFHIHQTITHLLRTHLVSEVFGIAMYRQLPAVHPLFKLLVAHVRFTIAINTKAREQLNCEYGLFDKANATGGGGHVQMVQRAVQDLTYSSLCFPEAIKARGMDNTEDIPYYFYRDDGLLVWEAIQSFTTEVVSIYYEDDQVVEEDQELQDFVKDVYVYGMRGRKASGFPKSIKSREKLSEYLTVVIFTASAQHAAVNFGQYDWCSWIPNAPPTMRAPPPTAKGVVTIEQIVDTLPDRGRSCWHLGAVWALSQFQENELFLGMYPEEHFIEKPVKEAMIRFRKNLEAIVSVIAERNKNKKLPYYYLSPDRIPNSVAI
The assay can be described thus: In vitro percent inhibition against 5-lipoxygenase in RBL-1 cells at 10 uM concentration. The class given is cell-based.

In assay [2] the target is T2, Polyunsaturated fatty acid 5-lipoxygenase (Rattus norvegicus, UniProt P12527).
T2 sequence (P12527 whole entry): T1 sequence (whole entry)
The experiment in a line: In vitro inhibitory concentration against 5-lipoxygenase in RBL-1 cells. The class given is cell-based.

Assay [3] has as its target T1, Polyunsaturated fatty acid 5-lipoxygenase (Rattus norvegicus). The assay can be described thus: In vitro percent inhibition against 5-lipoxygenase in RBL-1 cells at 1 uM concentration. The class given is cell-based.
For assay [4] the target is unchanged. Particulars: RBL-1; 10 uM.

Broadly, the inhibition is the share of the control response that was lost under treatment. The term IC50 denotes the concentration at which inhibition is half-maximal. Low readings indicate greater potency in that assay, high ones weaker potency in that assay.

As for `CN(NS(=O)(=O)c1ccccc1)c1ccccc1`, the inhibition in assay [1] worked out at 53%.
As for `O=C(NN1CCc2ccccc21)c1ccccc1`, the inhibition in assay [1] was determined as 15%.
In assay [2], `O=C(NN1CCc2cc(O)ccc21)c1ccccc1` gave an IC50 of 3.47 µM. The inhibition in assay [1] is 80%.
Consider `O=C(O)CCC/C=C/c1ccc(C(=O)NN2CCc3ccccc32)cc1`, for which the inhibition in assay [1] is 18%.
In assay [3], `CCCCCCCCCCNC(=O)CCC/C=C/c1ccc(C(=O)NN2CCc3ccccc32)cc1` had an inhibition of 57%.
Regarding `CC(Cc1ccc(O)c(O)c1)C(C)Cc1ccc(O)c(O)c1` (centres undefined), the inhibition in assay [4] is 73%.
On to `CN(NC(=O)c1ccccc1)c1ccccc1`, for which the inhibition in assay [1] was 28%.
On the same count and under the same terms, to `COc1ccc2c(c1)CCN2NC(=O)c1ccccc1` belongs 20%.

(Values after ChEMBL document CHEMBL1134002, “N-Aminoindoline derivatives as inhibitors of 5-lipoxygenase” (Bioorg Med Chem Lett, 2001).)
